The values that follow come from ChEMBL document CHEMBL3400055, “(+)- and (-)-liriodenol, a pair of novel enantiomeric lignans from Liriodendron hybrid” (Bioorg Med Chem Lett, 2015).

Common to all, as to type: functional, cell-based
Assay [1] is described as follows: Cytotoxic activity against human SGC7901 cells after 48 hrs by MTT assay. Particulars: SGC-7901, 48 h.
The subject of another assay is MDA-MB-231. The experiment in a line: Cytotoxic activity against human MDA-MB-231 cells after 48 hrs by MTT assay. The conditions noted are these: MDA-MB-231, 48 h. (In general: Tetrazolium assays rely on reduction of a dye to a coloured formazan, in cell work by metabolically active cells.)
In a further assay the test system is NCI-H460. The assay can be described thus: Cytotoxic activity against human NCI-H460 cells after 48 hrs by MTT assay. Particulars: NCI-H460, 48 h.
Assay [2] is described as follows: Cytotoxic activity against human BGC823 cells after 48 hrs by MTT assay. The conditions noted are these: BGC-823, 48 h.

Each structure is given as a SMILES string. In brackets after ≈: the same amount, converted by molar mass.

For `C=C(C(=O)c1cc(OC)c(O)c(OC)c1)[C@@H](CO)C(=O)c1cc(OC)c(O)c(OC)c1`, the IC50 in assay [1] is 34.5 µg/mL (≈ 79.7 µM); with MDA-MB-231, 28.7 µg/mL (≈ 66.3 µM); in the assay on NCI-H460, 31.4 µg/mL (≈ 72.7 µM); in assay [2], 45.5 µg/mL (≈ 105 µM).

On to `C=C(C(=O)c1cc(OC)c(O)c(OC)c1)[C@H](CO)C(=O)c1cc(OC)c(O)c(OC)c1`, for which the IC50 was above 100 µg/mL in assay [1], 53.3 µg/mL (≈ 123 µM) with MDA-MB-231, 63.4 µg/mL (≈ 147 µM) with NCI-H460 and above 100 µg/mL in assay [2].

Turning to `C=C(C(=O)c1cc(OC)c(O)c(OC)c1)C(CO)C(=O)c1cc(OC)c(O)c(OC)c1` (racemic), the IC50 in assay [1] was 67.5 µg/mL (≈ 156 µM); in the assay on MDA-MB-231, 51.4 µg/mL (≈ 119 µM); in the assay with NCI-H460, 58.1 µg/mL (≈ 134 µM); in assay [2], 58.9 µg/mL (≈ 136 µM).

The IC50 is the concentration needed to halve the response being measured. A low value points to greater potency in that assay.
